Experiments:
[1] = literature; cited from earlier work
U87MG tumor-bearing mice = test: in vivo; conditions: mouse
Procedure, shortened: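 microPET of U87MG-bearing mice after tail-vein injection of about 3.7 MBq ^18F-labelled RGD tracer under isoflurane; 30-min dynamic scan from 1 min p.i. plus 5-min static scans at 1–3 h. Tumour ROIs on decay-corrected coronal images, OSEM reconstruction without attenuation or scatter correction, converted to %ID/g.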

[2] = mouse, in vivo
Procedure: A U87MG tumor mouse was intravenously injected with 3.7 MBq of ^18F-FPRGD2. At 1 h after injection, the mouse was sacrificed, the blood, urine, liver, kidneys, and the U87MG tumor were collected and metabolite analysis was carried out as previously reported (J Nucl Med 2006;47: 113-121 and J Nucl Med 2006;47:1172-1180, each of which is incorporated herein by reference for the corresponding discussion). In brief, blood sample was immediately centrifuged for 5 min at 13,200 rpm. Other tissues were homogenized and then centrifuged for 5 min at 13,200 rpm. The supernatant was each passed through a C18 Sep-Pak cartridge. The urine sample was directly diluted with 1 mL of PBS and passed through a C18 Sep-Pak cartridge. The cartridges were each washed with 2 mL of water and eluted with 2 mL of ACN containing 0.1% TFA. The ACN eluent was concentrated and injected onto the analytical HPLC. The eluent was collected with a fraction collector (0.5 min/fraction) and the radioactivity of each fraction was measured with the γ-counter.
The metabolic stability of ^18F-FPTA-RGD2 was evaluated in an athymic nude mouse bearing a U87MG tumor. Sixty min after intravenous injection of 2 MBq of ^18F-FPTA-RGD2, the mouse was sacrificed and relevant organs were harvested. The blood was collected and immediately centrifuged for 5 min at 13,200 rpm. Liver, kidneys and tumor were homogenized and then centrifuged for 5 min at 13,200 rpm. After removal of the supernatants, the pellets were washed with 1 mL PBS. For each sample, supernatants of both centrifugation steps of blood, liver, and kidneys were combined and passed through C18 Sep-Pak cartridges. The urine sample was directly diluted with 1 mL of PBS and passed through a C18 Sep-Pak cartridge. The cartridges were each washed with 2 mL of water and eluted with 2 mL of ACN containing 0.1% TFA. After evaporation of the solvent, the residues were redissolved in 1 mL PBS and were injected onto the analytical HPLC. The eluent was collected with a fraction collector (0.5 min/fraction) and the radioactivity of each fraction was measured with the γ-counter.

[3] = system: rat myocardial infarction; test: microPET imaging of rat myocardial infarction; type: in vivo; conditions: scan 1 h after injection
Source text: Induction of MI was done as previously described by our laboratory. Adult female Sprague-Dawley rats (weight 150-200 g; Charles River Laboratories, Wilmington, Mass.) were used for this study. […] The anesthesia was then maintained with isoflurane (2%). MI was induced by ligation of the left anterior descending coronary artery 2 to 3 mm from the tip of the left auricle with a 7-0 polypropylene suture. […] In the sham operated animals, a suture was placed in the myocardium (without ligating the left coronary artery). Animals were anesthetized with isofluorane (2%) and injected with approximately 1 mCi (37 MBq) of ^64Cu-DOTA-[…]2) via the tail vein and allowed to recover. […] At the time of scanning, animals were anesthesized with isofluorane (2%) and prone positioned on the microPET Concorde R4 rodent model scanning gantry (Siemens A G, Malvern, Pa.). The scanner has a computer-controlled bed and 10.8-cm transaxial and 8-cm axial fields of view (FOV). […] It has no septa and operates exclusively in the 3-dimensional list mode. A 15 minute static acquisition was performed with the mid thorax in the center of the field of view (FOV), and images reconstructed using a filtered back projection algorithm.

stroke rats (dMCAO) = test: microPET imaging of dMCAO stroke rats; type: in vivo, rat
Source text: Anesthesia for Sprague-Dawley rats (290-350 g) was induced by 5% isoflurane and maintained by 2-3% isoflurane. A ventral midline incision was made and the two CCAs were isolated. Snares were placed around the CCAs and the animal was placed on its right side. A 2 cm vertical scalp incision was made midway between the left eye and ear. The temporalis muscle was bisected and a 2 mm burr hole was made at the junction of the zygomatic arch and squamous bone. The distal MCA was exposed and ligated above the rhinal fissure with a 10-0 suture. The CCA snares were tightened to occlude the CCAs for 2 h. In the permanent MCA occlusion model, both CCAs were then released, while the distal MCA remained occluded.

Row | Compound | log stability constant [1] | residence time for kidneys (U87MG tumor-bearing mice) [h] | defluoridation [2] | extraction efficiency (radioactivity in the supernatant) [2] | non-retained fraction (activity not trapped on C18 cartridges) [2] | myocardial tracer uptake after MI induction [3] | microPET signal in wound and stroke lesion (stroke rats (dMCAO); day 1 after dMCAO) | microPET signal in wound and stroke lesion (stroke rats (dMCAO); day 9 after dMCAO)
1 | O=C([O-])CN1CCN(CC(=O)[O-])CCN(CC(=O)[O-])CC1.[Ga+3] [Ga-NOTA] | 30.98 | – | – | – | – | – | – | –
2 | ^18F-FB-mini-PEG-E[c(RGDyK)]2 [^18F-FPRGD2] | – | 0.016 | No defluoridation was observed | 75-95% | less than 30% | significant increase in uptake | Both wound and the lesion were detectable at day 1 | the signal in the lesion reflecting angiogenesis is remained

Reference: patent US20080267882A1, “Imaging compounds, methods of making imaging compounds, methods of imaging, therapeutic compounds, methods of making therapeutic compounds, and methods of therapy” (Stanford University, priority 2007, published 2008)
